In patent publication US10570129B2 (Zoetis Services LLC, priority 2015, dated 2020):

Columns and labels:
[1] = system: Haemonchus contortus L3; assay: microbe, parasite or virus in culture; assay type: cell-based; details: Haemonchus contortus, 96 h, read-out: HcL3 Minimal Effective Concentration (MEC)
[2] = system: D. immitis microfilariae; assay: Dirofilaria immitis, microfilariae (DiMF) in vitro motility assay; assay type: cell-based; details: Dirofilaria immitis, 72 h, read-out: DiMF minimally effective dose (MEC)

Row | Compound | minimal effective concentration [1] | minimal effective concentration [2]
1 | O=C(NCc1ccnc(Cl)c1)n1c2c(c3ccc(Cl)cc31)CN(C/C=C/c1ccc(F)cc1F)CC2 [Example 209, (E)-7-chloro-N-((2-chloropyridin-4-yl)methyl)-2-(3-(2,4-difluorophenyl)-allyl)-1,2,3,4-tetrahydro-5H-pyrido[4,3-b]indole-5-carboxamide] | > 100 µM | 33 µM
2 | N#Cc1ccc2c(c1)c1c(n2C(=O)NCc2ccnc(O)c2)CCN(C/C=C/c2ccc(Cl)c(Cl)c2)C1 [Example 449, (E)-8-cyano-2-(3-(3,4-dichlorophenyl)allyl)-N-((2-hydroxypyridin-4-yl)methyl)-1,2,3,4-tetrahydro-5H-pyrido[4,3-b]indole-5-carboxamide] | > 100 µM | > 100 µM
3 | O=C(NCc1ccnc(Cl)c1)n1c2c(c3cc(C(F)(F)F)ccc31)CN(C/C=C/c1ccc(F)c(Cl)c1)CC2 [Example 413, (E)-2-(3-(3-chloro-4-fluorophenyl)allyl)-N-((2-chloropyridin-4-yl)methyl)-8-(trifluoromethyl)-1,2,3,4-tetrahydro-5H-pyrido[4,3-b]indole-5-carboxamide] | 1.8 µM | > 100 µM
4 | O=C(NCc1ccnc(F)c1)n1c2c(c3ccc(C(F)(F)F)cc31)CN(C/C=C/c1ccc(Cl)c(Cl)c1)CC2 [Example 166, (E)-2-(3-(3,4-dichlorophenyl)allyl)-N-((2-fluoropyridin-4-yl)methyl)-7-(trifluoromethyl)-1,2,3,4-tetrahydro-5H-pyrido[4,3-b]indole-5-carboxamide] | 10 µM | 5.7 µM
5 | COc1ccc2c(c1)c1c(n2C(=O)NCc2ccnc(Cl)c2)CCN(C/C=C/c2ccc(Cl)cc2)C1 [Example 512, (E)-2-(3-(4-chlorophenyl)allyl)-N-((2-chloropyridin-4-yl)methyl)-8-methoxy-1,2,3,4-tetrahydro-5H-pyrido[4,3-b]indole-5-carboxamide] | 1 µM | 10 µM
6 | O=C(NCc1ccnc(F)c1)n1c2c(c3cc(-c4cccc(Cl)c4)ccc31)CN(C/C=C/c1ccc(Cl)cc1)CC2 [Example 462, (E)-8-(3-chlorophenyl)-2-(3-(4-chlorophenyl)allyl)-N-((2-fluoropyridin-4-yl)methyl)-1,2,3,4-tetrahydro-5H-pyrido[4,3-b]indole-5-carboxamide] | > 100 µM | > 100 µM
7 | O=C(NCc1ccnc(Cl)c1)n1c2c(c3cc(N4CCSCC4)ccc31)CN(C/C=C/c1ccc(Cl)c(F)c1)CC2 [Example 510] | > 100 µM | > 100 µM
8 | O=C(NCc1ccnc(Cl)c1)n1c2c(c3cc(Cl)ccc31)CN(C/C=C/c1ccc(F)cc1)CC2 [Example 244, (E)-8-chloro-N-((2-chloropyridin-4-yl)methyl)-2-(3-(4-fluorophenyl)allyl)-1,2,3,4-tetrahydro-5H-pyrido[4,3-b]indole-5-carboxamide] | 0.7 µM | 10 µM
9 | N#Cc1ccc2c(c1)c1c(n2C(=O)NCc2ccnc(F)c2)CCN(C/C=C/c2cc(Cl)c(F)c(Cl)c2)C1 [Example 112, (E)-8-cyano-2-(3-(3,5-dichloro-4-fluorophenyl)allyl)-N-((2-fluoropyridin-4-yl)methyl)-1,2,3,4-tetrahydro-5H-pyrido[4,3-b]indole-5-carboxamide] | 0.5 µM | > 100 µM
10 | N#Cc1cc2c3c(n(C(=O)NCc4ccnc(Cl)c4)c2cc1OC(F)(F)F)CCN(C/C=C/c1ccc(Cl)cc1)C3 [Example 503, (E)-2-(3-(4-chlorophenyl)allyl)-N-((2-chloropyridin-4-yl)methyl)-8-cyano-7-(trifluoromethoxy)-1,2,3,4-tetrahydro-5H-pyrido[4,3-b]indole-5-carboxamide] | 33 µM | 3.3 µM
